Data: ChEMBL document CHEMBL1152415, “Potent antitumor bifunctional DNA alkylating agents, synthesis and biological activities of 3a-aza-cyclopenta[a]indenes” (Bioorg Med Chem, 2009)
The source made the active and inactive calls. The rule behind the calls is not given here.

What was measured:
MX1 [1] = experiment: Antitumor activity in human MX1 cells xenografted athymic nu/nu mouse assessed as complete remission of tumor at 5 mg/kg, iv administered daily once for 3 days; assay type: functional, organism-based; design: dose 5 mg/kg
CCRF-CEM [2] = experiment: Cytotoxicity against human CCRF-CEM cells after 72 hrs by XTT assay; assay type: functional, cell-based; settings: read-out: IC50
[3] = Cytotoxicity against human H1299 cells after 72 hrs by WST-1 assay; assay type: functional, cell-based; settings: NCI-H1299, 72 h
MX1 [4] = experiment: Cytotoxicity against human MX1 cells after 72 hrs by SRB assay; assay type: functional, cell-based; settings: MX1, 72 h
MX1 [5] = experiment: Antitumor activity in human MX1 cells xenografted athymic nu/nu mouse assessed as tumor re-growth at 50 mg/kg, iv administered daily once for 3 days measured after 24 days of tumor implantation; assay type: functional, organism-based; design: dose 50 mg/kg
Nucleic Acid [6] = experiment: Induction of pEGFP-N1 plasmid DNA interstrand cross-linking at 20 uM after 2 hrs by alkaline agarose gel shift assay; assay type: nucleic-acid assay
CCRF-CEM [7] = experiment: Cytotoxicity against human vinblastine-resistant CCRF-CEM cells after 72 hrs by XTT assay; assay type: functional, cell-based
Nucleic Acid [8] = experiment: Induction of pEGFP-N1 plasmid DNA interstrand cross-linking at 1 uM after 2 hrs by alkaline agarose gel shift assay; assay type: nucleic-acid assay
HCT-116 = experiment: Cytotoxicity against human HCT116 cells after 72 hrs by SRB assay; assay type: functional, cell-based; settings: HCT-116, 72 h
CCRF-CEM [9] = experiment: Cytotoxicity against human taxol-resistant CCRF-CEM cells after 72 hrs by XTT assay; assay type: functional, cell-based
[10] = Toxicity in athymic nu/nu mouse assessed as maximum tolerated dose; assay type: organism-based; settings: in vivo, read-out: Activity
MX1 [11] = experiment: Antitumor activity in human MX1 cells xenografted athymic nu/nu mouse assessed as complete remission of tumor at 50 mg/kg, iv administered daily once for 3 days; assay type: functional, organism-based; design: dose 50 mg/kg
[12] = Cytotoxicity against human U87 cells after 72 hrs by WST-1 assay; assay type: functional, cell-based, U-87MG ATCC; settings: U-87 MG
PC-3 [13] = experiment: Antitumor activity in human PC3 cells xenografted athymic nu/nu mouse assessed as complete tumor suppression at 50 mg/kg, iv administered daily once for 4 days measured after day 14 to day 32; assay type: functional, organism-based; design: dose 50 mg/kg
CCRF-CEM [14] = experiment: Cross-resistance, IC50 for human vinblastine-resistant CCRF-CEM cells to IC50 for human CCRF-CEM cells; assay type: functional
MX1 [15] = experiment: Antitumor activity in human MX1 cells xenografted athymic nu/nu mouse assessed as complete remission of tumor at 15 mg/kg, iv administered daily twice for 4 days; assay type: functional, organism-based; design: dose 15 mg/kg
MX1 [16] = experiment: Antitumor activity in human MX1 cells xenografted athymic nu/nu mouse assessed as complete remission of tumor at 18 mg/kg, iv administered daily twice for 2 days; assay type: functional, organism-based; design: dose 18 mg/kg
[17] = Cytotoxicity against human OECM1 cells after 72 hrs by WST-1 assay; assay type: functional, cell-based; settings: OECM1, 72 h
Nucleic Acid [18] = experiment: Induction of pEGFP-N1 plasmid DNA interstrand cross-linking at 10 uM after 2 hrs by alkaline agarose gel shift assay; assay type: nucleic-acid assay
PC-3 [19] = experiment: Cytotoxicity against human PC3 cells after 72 hrs by WST-1 assay; assay type: functional, cell-based; settings: PC-3, 72 h
SK-OV-3 = experiment: Antitumor activity in human SKOV3 cells xenografted athymic nu/nu mouse assessed as tumor suppression at 50 mg/kg, iv administered daily once for 3 days measured after 22 days relative to control; assay type: functional
MX1 [20] = experiment: Antitumor activity in human MX1 cells xenografted athymic nu/nu mouse assessed as complete remission of tumor at 50 mg/kg, iv administered daily once for 3 days measured after 24 days of tumor implantation; assay type: functional, organism-based; design: dose 50 mg/kg
Mus musculus = experiment: Toxicity in human PC3 cells xenografted athymic nu/nu mouse assessed as weight loss at 50 mg/kg, iv administered daily once for 4 days measured after day 14 to day 32 relative to control; assay type: organism-based, PC-3; design: dose 50 mg/kg, route intravenous; settings: in vivo, 96 h
CCRF-CEM [21] = experiment: Cross-resistance, IC50 for human taxol-resistant CCRF-CEM cells to IC50 for human CCRF-CEM cells; assay type: functional
MX1 [22] = experiment: Antitumor activity in human MX1 cells xenografted athymic nu/nu mouse assessed as complete remission of tumor at 15 mg/kg, iv administered daily twice for 4 days measured after 18 days of tumor implantation; assay type: functional, organism-based; design: dose 15 mg/kg
[23] = Cell cycle arrest in human H1299 cells assessed as accumulation at subG1 phase at 10 uM after 24 hrs by flow cytometry relative to control; assay type: functional, cell-based; settings: NCI-H1299
Nucleic Acid [24] = experiment: Induction of DNA interstrand cross-linking in human H1299 cells at 100 uM under aerobic condition for 1 hr followed by irradiated with 20 Gy of X-ray by modified comet assay relative to irradiated untreated control; assay type: cell-based
[25] = Cell cycle arrest in human H1299 cells assessed as accumulation at S phase at 10 uM after 48 hrs by flow cytometry relative to control; assay type: functional, cell-based; settings: NCI-H1299
[26] = Cell cycle arrest in human H1299 cells assessed as accumulation at G2/M phase at 10 uM after 48 hrs by flow cytometry relative to control; assay type: functional, cell-based; settings: NCI-H1299
[27] = Cell cycle arrest in human H1299 cells assessed as accumulation at subG1 phase at 10 uM after 72 hrs by flow cytometry relative to control; assay type: functional, cell-based; settings: NCI-H1299
[28] = Cell cycle arrest in human H1299 cells assessed as accumulation at subG1 phase at 10 uM after 48 hrs by flow cytometry relative to control; assay type: functional, cell-based; settings: NCI-H1299
[29] = Cell cycle arrest in human H1299 cells assessed as accumulation at G2/M phase at 10 uM after 24 hrs by flow cytometry relative to control; assay type: functional, cell-based; settings: NCI-H1299
[30] = Cell cycle arrest in human H1299 cells assessed as accumulation at G0/G1 phase at 10 uM after 72 hrs by flow cytometry relative to control; assay type: functional, cell-based; settings: NCI-H1299
[31] = Cell cycle arrest in human H1299 cells assessed as accumulation at G0/G1 phase at 10 uM after 24 hrs by flow cytometry relative to control; assay type: functional, cell-based; settings: NCI-H1299
[32] = Cell cycle arrest in human H1299 cells assessed as accumulation at G2/M phase at 10 uM after 72 hrs by flow cytometry relative to control; assay type: functional, cell-based; settings: NCI-H1299
[33] = Cell cycle arrest in human H1299 cells assessed as accumulation at S phase at 10 uM after 24 hrs by flow cytometry relative to control; assay type: functional, cell-based; settings: NCI-H1299
[34] = Cell cycle arrest in human H1299 cells assessed as accumulation at G0/G1 phase at 10 uM after 48 hrs by flow cytometry relative to control; assay type: functional, cell-based; settings: NCI-H1299
[35] = Cell cycle arrest in human H1299 cells assessed as accumulation at S phase at 10 uM after 72 hrs by flow cytometry relative to control; assay type: functional, cell-based; settings: NCI-H1299

Row | SMILES | Activity (MX1 [1]) | IC50 (CCRF-CEM [2]) | IC50 [3] | IC50 (MX1 [4]) | Activity (Nucleic Acid [6]) | IC50 (CCRF-CEM [7]) | Activity (Nucleic Acid [8]) | IC50 (HCT-116) | IC50 (CCRF-CEM [9]) | MTD [10] | Activity (MX1 [11]) | IC50 [12] | Ratio IC50 (CCRF-CEM [14]) | Activity (MX1 [15]) | Activity (MX1 [16]) | IC50 [17] | Activity (Nucleic Acid [18]) | IC50 (PC-3 [19]) | Ratio IC50 (CCRF-CEM [21]) | further results
1 | CCc1c(CO)c(CO)c2n1-c1ccccc1C2 | Active | 360 nM | 14100 nM | 1100 nM | Active | 230 nM | Active | 830 nM | 140 nM | 50 mg/kg | Active | 18200 nM | 0.64 | Active | Active | 1240 nM | Active | 16600 nM | 0.39 | Activity (MX1 [5]): inactive; Activity (PC-3 [13]): Active; Activity (SK-OV-3): 78%; Activity (MX1 [20]): Active; Activity (Mus musculus): 15%
2 | CNC(=O)OCc1c(COC(=O)NC)c(-c2ccccc2OC)n2c1Cc1ccccc1-2 | Active | 140 nM |  | 1300 nM | Active | 360 nM | Active | 150 nM | 250 nM | 15 mg/kg | Active |  | 2.7 | Active | Active |  | Active |  | 1.8 | Activity (MX1 [22]): Active
3 | CNC(=O)OCc1c(COC(=O)NC)c(-c2ccc(OC)cc2)n2c1Cc1cc(OC)ccc1-2 |  | 62 nM | 20900 nM | 870 nM | Active | 98 nM | Active | 440 nM | 62 nM |  |  | 38300 nM | 1.6 |  |  | 1270 nM | Active | 22000 nM | 1 | Activity [23]: 2.64%; Activity (Nucleic Acid [24]): 97.9%; Activity [25]: 25.6%; Activity [26]: 49.5%; Activity [27]: 17.2%; Activity [28]: 5.86%; Activity [29]: 4.15%; Activity [30]: 5.06%; Activity [31]: 44.7%; Activity [32]: 85.8%; Activity [33]: 51.1%; Activity [34]: 24.9%; Activity [35]: 9.19%
